Columns and labels:
Experiment in all cases: normalised response (% of control), CellTox Green; higher = less cell death (100 = DMSO, 0 = benzethonium chloride kill control)
Conditions in all cases: incubation time: 72 h
[1] = system: CAL-51
Outline: (§1)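 Two readouts were taken after 72 h: CellTox Green fluorescence (485/520 nm) first, then CellTiter-Glo luminescence after 10 min at room temperature. Breast cancer cell lines had been seeded as 20 µl suspension into 384-well plates holding compound at 5 concentrations in 10-fold steps across a compound-specific 10,000-fold range. Each value is a normalised signal at a single concentration, with plates scaled to 0.1 % DMSO (100) and a positive kill control (0).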

[2] = system: MCF-10A
Outline: as §1

[3] = system: CAL-85-1
Outline: as §1

[4] = system: BT-474
Outline: as §1

[5] = system: CAL-120
Outline: as §1

[6] = system: MDA-MB-436
Outline: as §1

[7] = system: MDA-MB-468
Outline: as §1

[8] = system: HCC1143
Outline: as §1

[9] = system: HCC1599
Outline: as §1

[10] = system: BT-549
Outline: as §1

[11] = system: MFM-223
Outline: as §1

[12] = system: CAL-148
Outline: as §1

Row | Compound | normalised response [1] [%] | normalised response [2] [%] | normalised response [3] [%] | normalised response [4] [%] | normalised response [5] [%] | normalised response [6] [%] | normalised response [7] [%] | normalised response [8] [%] | normalised response [9] [%] | normalised response [10] [%] | normalised response [11] [%] | normalised response [12] [%]
1 | COc1ccc(-c2cc3c(C)nc(N)nc3n([C@H]3CC[C@H](OCCO)CC3)c2=O)cn1 (1000 nM) | 43.9 | 93.2 | 79.9 | 49.8 | 98.5 | 113 | 123 | 79.8 | 90.4 | 115 | 81 | 51.2
2 | COc1ccc(-c2cc3c(C)nc(N)nc3n([C@H]3CC[C@H](OCCO)CC3)c2=O)cn1 (10000 nM) | 17.6 | 72.4 | 52.1 | -9.27 | 75.8 | 100 | 59.9 | 91.1 | 92.1 | 0.06 | 52.8 | -9.66
3 | O=C(Nc1c[nH]nc1-c1nc2ccc(CN3CCOCC3)cc2[nH]1)NC1CC1 [AT9283] (1000 nM) | 56 | 88.4 | 37.8 | 89.1 | 57.7 | 77.6 | 65.6 | 119 | 105 | 70.5 | 75 | 83.9
4 | COc1cc(CCc2cc(NC(=O)c3ccc(N4CC(C)NC(C)C4)cc3)n[nH]2)cc(OC)c1 (stereo not given) [AZD4547] (100 nM) | 95.6 | 105 | 108 | 96.5 | 99.3 | 91 | 117 | 82 | 90.6 | 118 | 97.4 | 101
5 | COc1cc(CCc2cc(NC(=O)c3ccc(N4CC(C)NC(C)C4)cc3)n[nH]2)cc(OC)c1 (stereo not given) [AZD4547] (1000 nM) | 96.6 | 63.9 | 126 | 99.9 | 89.5 | 95.4 | 190 | 59.4 | 100 | 90 | 95.5 | 57.8
6 | CCC/C=C/C=C/C(=O)O[C@H]1/C(=C/C(=O)OC)C[C@H]2C[C@H]([C@@H](C)O)OC(=O)C[C@H](O)C[C@@H]3C[C@H](OC(C)=O)C(C)(C)[C@](O)(C[C@@H]4C/C(=C/C(=O)OC)C[C@H](/C=C/C(C)(C)[C@]1(O)O2)O4)O3 [Bryostatin 1] (10 nM) | 92 | 109 | 91.3 | 106 | 102 | 74.1 | 116 | 116 | 115 | 139 | 88 | 108
7 | CCC/C=C/C=C/C(=O)O[C@H]1/C(=C/C(=O)OC)C[C@H]2C[C@H]([C@@H](C)O)OC(=O)C[C@H](O)C[C@@H]3C[C@H](OC(C)=O)C(C)(C)[C@](O)(C[C@@H]4C/C(=C/C(=O)OC)C[C@H](/C=C/C(C)(C)[C@]1(O)O2)O4)O3 [Bryostatin 1] (100 nM) | 104 | 103 | 64.6 | 93.1 | 99.8 |  | 150 | 53.9 | 118 | 122 | 104 | 105
8 | CO[C@@H](C(=O)N1Cc2[nH]nc(NC(=O)c3ccc(N4CCN(C)CC4)cc3)c2C1)c1ccccc1 [Danusertib] (1000 nM) | 57.8 | 110 | 97.5 | 102 | 94 |  | 51.4 | 66.9 | 104 | 112 | 92.9 | 45.1
9 | CO[C@@H](C(=O)N1Cc2[nH]nc(NC(=O)c3ccc(N4CCN(C)CC4)cc3)c2C1)c1ccccc1 [Danusertib] (10000 nM) | 22.9 | 57.6 | 67.3 | 91.6 | 28.7 | 75.7 | 55.9 | 127 | 106 | 53.1 | 94.9 | 90.5
10 | Cc1nc(Nc2ncc(C(=O)Nc3c(C)cccc3Cl)s2)cc(N2CCN(CCO)CC2)n1 [Dasatinib] (100 nM) | 68.4 | 112 | 74 | 94.4 | 97.2 | 107 | 101 | 70.1 | 95.6 | 85.9 | 91.5 | 98.8
11 | Cc1nc(Nc2ncc(C(=O)Nc3c(C)cccc3Cl)s2)cc(N2CCN(CCO)CC2)n1 [Dasatinib] (1000 nM) | 75.6 | 63 | 43.1 | 103 | 100 | 97 | 99.7 | 107 | 102 | 39.7 |  | 104
12 | Cc1c(CN2CCN(C(=O)[C@H](C)O)CC2)sc2c(N3CCOCC3)nc(-c3cnc(N)nc3)nc12 [GDC-0980] (1000 nM) | 90.8 | 100 | 97.7 | 85.6 | 103 | 102 | 117 | 85 | 99.9 | 108 | 76.5 | 68.3
13 | Cc1c(CN2CCN(C(=O)[C@H](C)O)CC2)sc2c(N3CCOCC3)nc(-c3cnc(N)nc3)nc12 [GDC-0980] (10000 nM) | 18 | 88.3 | 58 | 53.5 | 104 | 98.5 | 119 | 47 | 96.9 | 95.2 | -39.7 | 49.1
14 | Nc1cccc2c1CN(C1CCC(=O)NC1=O)C2=O (stereo not given) [Lenalidomide] (1000 nM) | 104 | 108 | 92.2 | 99.8 | 96.9 | 88.4 | 122 | 111 | 105 | 125 | 99.6 | 
15 | Nc1cccc2c1CN(C1CCC(=O)NC1=O)C2=O (stereo not given) [Lenalidomide] (10000 nM) | 102 | 91.8 | 90.7 | 102 | 97.7 | 95.5 | 138 | 119 | 103 | 117 | 80.3 | 
16 | C[C@]12O[C@H](C[C@]1(O)CO)n1c3ccccc3c3c4c(c5c6ccccc6n2c5c31)CNC4=O [Lestaurtinib] (100 nM) | 56.4 | 107 | 83.4 | 94 | 96.2 | 66.7 | 69.6 | 116 | 74.8 | 99.7 | 86.4 | 95.8
17 | C[C@]12O[C@H](C[C@]1(O)CO)n1c3ccccc3c3c4c(c5c6ccccc6n2c5c31)CNC4=O [Lestaurtinib] (1000 nM) | 111 | 66 | 21.5 | 77.2 | 65.5 | 51.6 | 107 | 73.5 | 57.5 | 50 | 89.8 | 67
18 | O=C1c2c(O)ccc(O)c2C(=O)c2c(NCCNCCO)ccc(NCCNCCO)c21 [Mitoxantrone] (100 nM) | 92.8 | 113 | 101 | 101 | -30.1 | 87.8 | 158 | 109 | 91 | 117 | 101 | 82.3
19 | O=C1c2c(O)ccc(O)c2C(=O)c2c(NCCNCCO)ccc(NCCNCCO)c21 [Mitoxantrone] (1000 nM) | 60 | 112 | 104 | 95.7 | 107 | 78 | 217 | 119 | 112 | 108 | 88 | 52.5
20 | Nc1ccccc1NC(=O)c1ccc(CNc2nccc(-c3cccnc3)n2)cc1 [Mocetinostat] (1000 nM) | 67 | 106 | 101 | 96 | 95.2 | 66.7 | 62.9 | 98.2 | 83.2 | 103 | 92.4 | 98.8
21 | Nc1ccccc1NC(=O)c1ccc(CNc2nccc(-c3cccnc3)n2)cc1 [Mocetinostat] (10000 nM) | 7.12 | 84 | -38.3 | 34.8 | 17.4 | -9.9 | -170 | 63.6 | 73.8 | 34.1 | 60.3 | 35.8
22 | COc1nc(N)nc2c1ncn2[C@@H]1O[C@H](CO)[C@@H](O)[C@@H]1O [Nelarabine] (1000 nM) | 99.3 | 98.8 | 108 | 96.4 | 89 | 88.7 | 102 |  | 90.3 | 128 | 89.8 | 87.2
23 | COc1nc(N)nc2c1ncn2[C@@H]1O[C@H](CO)[C@@H](O)[C@@H]1O [Nelarabine] (10000 nM) | 111 | 83.2 | 138 | 96 | 93.8 | 91 | 122 | 99.1 | 96.5 | 87.5 | 87.6 | 100
24 | Cc1ccc(Nc2nccc(N(C)c3ccc4c(C)n(C)nc4c3)n2)cc1S(N)(=O)=O [Pazopanib] (1000 nM) | 107 | 77 | 101 | 104 | 101 | 64.8 | 50 | 99.3 | 105 | 127 | 102 | 106
25 | Cc1ccc(Nc2nccc(N(C)c3ccc4c(C)n(C)nc4c3)n2)cc1S(N)(=O)=O [Pazopanib] (10000 nM) | 76.9 | 94.8 | 78.9 | 99.5 | 94 | 96.9 | 162 | 55.8 | 100 | 119 | 96.1 | 100
26 | O=C(CCBr)N1CCN(C(=O)CCBr)CC1 [Pipobroman] (1000 nM) | 106 | 103 | 106 | 100 | 98.9 | 102 | 84.6 |  | 93.6 | 98.2 | 94 | 
27 | O=C(CCBr)N1CCN(C(=O)CCBr)CC1 [Pipobroman] (10000 nM) | 101 | 88.8 | 77.6 | 100 | 91.5 | 101 | 134 |  | 97.4 | 98.9 |  | 96.9
28 | C[C@]12C=CC(=O)C=C1CC[C@@H]1[C@@H]2[C@@H](O)C[C@@]2(C)[C@H]1CC[C@]2(O)C(=O)CO [Prednisolone] (1000 nM) | 113 | 101 | 98.9 | 99.6 | 98.7 | 54.9 | 156 | 112 | 100 | 116 | 95.8 | 104
29 | C[C@]12C=CC(=O)C=C1CC[C@@H]1[C@@H]2[C@@H](O)C[C@@]2(C)[C@H]1CC[C@]2(O)C(=O)CO [Prednisolone] (10000 nM) | 102 | 100 | 84.1 | 101 | 99.8 | 60.2 | 154 | 51 | 97.9 | 90.8 | 99.7 | 101
30 | CNC(=O)c1cc(Oc2ccc(NC(=O)Nc3ccc(Cl)c(C(F)(F)F)c3)cc2)ccn1 [Sorafenib] (100 nM) | 87 | 99.8 | 107 | 96.8 | 99.5 | 105 | 118 | 83.6 | 93.7 | 114 | 101 | 73

Reference: the supplement of paper PMC4862054
